In ChEMBL document CHEMBL1128397, “Novel 2,4-diamino-5-substituted-pyrrolo[2,3-d]pyrimidines as classical and nonclassical antifolate inhibitors of dihydrofolate reductases” (J Med Chem, 1995):

T1: Bifunctional dihydrofolate reductase-thymidylate synthase (Toxoplasma gondii, UniProt Q07422)
T1 sequence (Q07422 whole entry): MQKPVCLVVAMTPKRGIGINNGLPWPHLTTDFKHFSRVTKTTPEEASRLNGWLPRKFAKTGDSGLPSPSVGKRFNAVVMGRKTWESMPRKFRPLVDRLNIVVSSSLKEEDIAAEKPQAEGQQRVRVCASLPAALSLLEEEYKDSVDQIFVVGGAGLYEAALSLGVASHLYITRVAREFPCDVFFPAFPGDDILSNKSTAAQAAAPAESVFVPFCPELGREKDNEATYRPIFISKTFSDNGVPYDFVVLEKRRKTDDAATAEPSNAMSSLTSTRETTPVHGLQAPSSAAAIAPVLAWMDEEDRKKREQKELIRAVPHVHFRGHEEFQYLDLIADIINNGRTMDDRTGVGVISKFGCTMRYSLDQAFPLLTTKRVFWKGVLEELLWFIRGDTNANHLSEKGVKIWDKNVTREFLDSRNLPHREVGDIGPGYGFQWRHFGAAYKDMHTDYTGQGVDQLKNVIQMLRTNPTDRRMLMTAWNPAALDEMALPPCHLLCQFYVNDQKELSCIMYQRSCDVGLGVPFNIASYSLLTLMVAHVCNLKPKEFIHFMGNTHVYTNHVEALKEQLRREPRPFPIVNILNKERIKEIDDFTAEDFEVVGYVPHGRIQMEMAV

T2: Dihydrofolate reductase (Rattus norvegicus, UniProt Q920D2)
T2 sequence (Q920D2 whole entry): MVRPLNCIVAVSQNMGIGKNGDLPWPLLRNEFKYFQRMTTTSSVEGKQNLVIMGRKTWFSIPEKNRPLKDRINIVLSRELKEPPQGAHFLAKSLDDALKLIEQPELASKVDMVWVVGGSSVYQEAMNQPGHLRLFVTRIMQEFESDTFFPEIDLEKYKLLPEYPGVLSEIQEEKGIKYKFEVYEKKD

T3: Dihydrofolate reductase (Pneumocystis carinii, UniProt P16184)
T3 sequence (P16184 whole entry): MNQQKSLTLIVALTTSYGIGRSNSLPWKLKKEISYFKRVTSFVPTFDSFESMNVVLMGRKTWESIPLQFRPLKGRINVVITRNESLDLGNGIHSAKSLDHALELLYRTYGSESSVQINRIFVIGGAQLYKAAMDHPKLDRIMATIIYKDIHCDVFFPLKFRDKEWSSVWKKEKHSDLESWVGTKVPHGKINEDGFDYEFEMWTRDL


Assays:
A253 cell line = experiment: Growth inhibition of human squamous carcinoma cell lines following continuous (120 hours) exposure to MTX and compound A253 cell line; type: functional, cell-based; details: A253, 120 h
FaDu = experiment: Growth inhibition of human squamous carcinoma cell lines following continuous (120 hours) exposure to MTX and compound FaDu cell line; type: functional, cell-based
[1] = Ratio of IC50 against rat liver DHFR and Pneumocystis carinii DHFR (IC50rl/IC50pc)
[2] = Ratio of the IC50 against rat liver DHFR and Toxoplasma gondii DHFR (IC50rl/IC50tg)
[3] = biological target: T1, Bifunctional dihydrofolate reductase-thymidylate synthase
Description: Inhibition of Toxoplasma gondii (tc) Dihydrofolate reductase

Dihydrofolate reductase [4] = biological target: T2, Dihydrofolate reductase
Description: Inhibition of rat liver Dihydrofolate reductase

Dihydrofolate reductase [5] = biological target: T3, Dihydrofolate reductase
Description: Inhibition of Pneumocystis carinii (pc) Dihydrofolate reductase

[6] = Relative Vmax of compound was measured.; type: ADME
CCRF-CEM [7] = experiment: Compound was evaluated for the growth inhibition of R2, a CCRF-CEM subline resistant to MTX as a result of deffective uptake.; type: functional, cell-based; details: Homo sapiens
CCRF-CEM [8] = experiment: Compound was evaluated for the growth inhibition of R30dm, a CCRF-CEM subline resistant to intermittent MTX exposure solely as a result of decreased polyglutamylation.; type: functional, cell-based; details: Homo sapiens
CCRF-CEM [9] = experiment: Compound was evaluated for the growth inhibition of parental CCRF-CEM; type: functional, cell-based; details: Homo sapiens
[10] = compound: Nc1nc(N)c2nc(CNc3ccc(C(=O)N[C@@H](CCC(=O)O)C(=O)O)cc3)cnc2n1; experiment: Inhibitory activity of compound was measured for CCRF-CEM human leukemia cell Folyl-polyglutamate synthase
[11] = biological target: Folylpolyglutamate synthase, mitochondrial (Homo sapiens) (UniProt Q05932); experiment: Inhibitory activity of compound was measured for CCRF-CEM human leukemia cell Folyl-polyglutamate synthase

Row | Molecule | Selectivity ratio [1] | Selectivity ratio [2] | IC50 [3] | IC50 (Dihydrofolate reductase [4]) | IC50 (Dihydrofolate reductase [5]) | further results
1 | CN(Cc1cnc2nc(N)nc(N)c2n1)c1ccc(C(=O)N[C@@H](CCC(=O)O)C(=O)O)cc1 [METHOTREXATE] | – | – | – | – | – | EC50 (A253 cell line): 17 nM; EC50 (FaDu): 31 nM
2 | COc1ccc(NCc2c[nH]c3nc(N)nc(N)c23)cc1 | 0.23 | 10.5 | 6000 nM | 63000 nM | 279000 nM | –
3 | Nc1nc(N)c2c(CNc3ccc(C(=O)NC(CCC(=O)O)C(=O)O)cc3)c[nH]c2n1 (stereo not given) | – | – | 210 nM | – | 38 nM | EC50 (A253 cell line): 46 nM; Vmax [6]: 0.72; EC50 (CCRF-CEM [7]): 1650 nM; EC50 (CCRF-CEM [8]): 36 nM; EC50 (CCRF-CEM [9]): 12.8 nM; EC50 (FaDu): 22 nM
4 | Nc1nc(N)c2nc(CNc3ccc(C(=O)N[C@@H](CCC(=O)O)C(=O)O)cc3)cnc2n1 [AMINOPTERIN] | – | – | – | – | – | Vmax [6]: 1
5 | CCOc1ccc(OCC)c(NCc2c[nH]c3nc(N)nc(N)c23)c1 | – | – | – | – | 21000 nM | –
6 | Nc1nc(N)c2c(CNc3cccc4ccccc34)c[nH]c2n1 | 0.2 | 53.9 | 1100 nM | 59300 nM | 307000 nM | –
7 | COc1cc(NCc2c[nH]c3nc(N)nc(N)c23)cc(OC)c1OC | < 2.4 | 7 | 8100 nM | 56300 nM | > 23000 nM | –
8 | Nc1nc(N)c2c(CNc3ccccc3)c[nH]c2n1 | < 1 | > 65 | – | – | – | –
9 | COc1ccc(OC)c(NCc2c[nH]c3nc(N)nc(N)c23)c1 | 3.4 | 92 | 1700 nM | 156000 nM | – | –
10 | Folylpolyglutamate synthase, mitochondrial (Homo sapiens), Q05932 (protein) MSRARSHLRAALFLAAASARGITTQVAARRGLSAWPVPQEPSMEYQDAVRMLNTLQTNAGYLEQVKRQRGDPQTQLEAMELYLARSGLQVEDLDRLNIIHVTGTKGKGSTCAFTECILRSYGLKTGFFSSPHLVQVRERIRINGQPISPELFTKYFWRLYHRLEETKDGSCVSMPPYFRFLTLMAFHVFLQEKVDLAVVEVGIGGAYDCTNIIRKPVVCGVSSLGIDHTSLLGDTVEKIAWQKGGIFKQGVPAFTVLQPEGPLAVLRDRAQQISCPLYLCPMLEALEEGGPPLTLGLEGEHQRSNAALALQLAHCWLQRQDRHGAGEPKASRPGLLWQLPLAPVFQPTSHMRLGLRNTEWPGRTQVLRRGPLTWYLDGAHTASSAQACVRWFRQALQGRERPSGGPEVRVLLFNATGDRDPAALLKLLQPCQFDYAVFCPNLTEVSSTGNADQQNFTVTLDQVLLRCLEHQQHWNHLDEEQASPDLWSAPSPEPGGSASLLLAPHPPHTCSASSLVFSCISHALQWISQGRDPIFQPPSPPKGLLTHPVAHSGASILREAAAIHVLVTGSLHLVGGVLKLLEPALSQ | – | – | – | – | – | Km [10]: 4.3 µM; Km [11]: < 1 µM
